One substance from patent US20230165969A1, “PHARMACEUTICAL COMPOSITION COMPRISING ANTIBODY DRUG CONJUGATE AND USE THEREOF” (priority 2020, published 2023) can be followed below.

The assay concerns trastuzumab (Herceptin)-resistant human breast cancer cell strain JIMT-1 xenograft tumor. Kind of assay: Drug efficacy on JIMT-1 tumor-bearing mice. Format: in vivo, nu/nu nude mice. To be noted: 10 mg/kg, two intraperitoneal injections, observation for 34 days. As for the experimental part:
The tumor volumes and body weights were measured twice a week and the results were recorded.

Consider T-DM1, for which the tumor inhibition rate entry was “no inhibition effect on tumors”.
